Results as given in patent US8287887B2, “Antigen-and-drug vehicle comprising synthetic peptide, and mucosal vaccine using the same” (priority 2008, dated 2012).

Legend:
[1] = tested on: influenza virus A strain New Calcdonia (H1N1); parameters: species or system Clawn minipigs; conditions: minipig, in vivo
[2] = tested on: influenza A virus strain Aichi/68/2/H3N2; test: Nasal vaccination of mice; anti-influenza IgA and IgG in nasal cavity lavage fluids and blood serum by ELISA; format: in vivo, BALB/c mice; conditions: compared with HA vaccine alone or with other AD vehicles

| Sequence | Effectiveness of AD vehicle in inducing antibody titers, in words [1] | Antibody-production-enhancing effect (IgA and/or IgG), in words [2] |
| --- | --- | --- |
| KKKKKKLLLLLLLLLLLLLLLL [K6L16, six K residues on the N-terminal side and 16 L residues on the C-terminal side] | effective | – |
| PVHLKRLLLLLLLLLLL [SP-CL11] | effective | – |
| PVHLRKLLLLLLLLLLLLLLLL (PVHLKRLLLLLLLLLLLLLLLL) [RK-SP-CL, comparison peptide; KR of the 5th-6th positions of SP-CL11 reversed to RK, more L residues] | – | not much involved in the antibody production |
